Results from the C3SDB collision cross section collection.
“And” between values parts separate entries of the source, which are not always exact repeats. Identical values can stand only once.

What was measured:
[1] = [M-H]-; instrument: TW; calibrated with phosphatidylcholines (ESI+) and phosphatidylethanolamines (ESI-), doubly charged cardiolipins calibrated with poly-DL-…
[2] = instrument: DT, single field, calibrated with Agilent tune mix (Agilent)
[3] = instrument: DT, single field
[4] = instrument: DT, stepped-field

| SMILES | collision cross section (N2) ([2]; [M+NH4]+) [Å²] | collision cross section (N2) ([3]; [M+NH4]+) | collision cross section (N2) ([3]; [M+Na]+) | also measured |
| --- | --- | --- | --- | --- |
| CCCCCC/C=C\CCCCCCCC(=O)OC[C@H](COP(=O)(O)OCCNC(=O)CCCCCCCCCCCCCCC)OC(=O)CCCCCCCCCCCCC [AcylPE(46:1)] | – | – | – | collision cross section (N2) [1]: 310.12 Å² |
| CCCCC/C=C\CCCCCCCC(=O)O[C@H](COC(=O)CCCCCCC/C=C\CCCCCC)COP(=O)([O-])OCC[N+](C)(C)C [PC(31:2)] | – | – | – | collision cross section (N2) ([4]; [M+K]+): 283.6 Å²; collision cross section (N2) ([3]; [M+H]+): 272.28 Å² |
| CCCCC/C=C\C/C=C\CCCCCCCCCC(=O)O[C@H](COC(=O)CCCCCCCCCCCC)COP(=O)([O-])OCC[N+](C)(C)C [PC(33:2)] | – | – | – | collision cross section (N2) ([4]; [M+K]+): 291.5 Å²; collision cross section (N2) ([2]; [M+H]+): 279.8 Å²; collision cross section (N2) ([3]; [M+H]+): 279.23 Å² |
| CCCCCCCCCCCCC=CC[C@@H](O)[C@H](COP(=O)([O-])OCC[N+](C)(C)C)NC(=O)CCCCCCCCCCCCCCCCCCCCC [SM(40:1)] | – | – | – | collision cross section (N2) ([4]; [M+Na]+): 303.9 Å²; collision cross section (N2) ([2]; [M+HCOO]-): 297.5 Å²; collision cross section (N2) ([2]; [M+H]+): 300.7 Å²; collision cross section (N2) ([2]; [M+Na]+): 300.5 Å²; collision cross section (N2) ([3]; [M+H]+): 299.29 Å² |
| CCCCCCCCCCCCC=CC[C@@H](O)[C@H](COP(=O)([O-])OCC[N+](C)(C)C)NC(=O)CCCCCCCCCCCCCCCCCCCCCCCC [SM(43:1)] | – | – | – | collision cross section (N2) ([4]; [M+Na]+): 312.5 Å²; collision cross section (N2) ([3]; [M+H]+): 308.58 Å² |
| CCCCCCCCCCCCC=CC[C@@H](O)[C@H](COP(=O)([O-])OCC[N+](C)(C)C)NC(=O)CCCCCCCCCCCCCCCCCCCCCCCCCC [SM(45:1)] | – | – | – | collision cross section (N2) ([3]; [M+H]+): 315.31 Å² |
| CCCCCCCCCCCCCCCC(=O)OC[C@@H](COC(=O)CCCCCCCCCCC)OC(=O)CCCCCCCCCCC [TG(40:0)] | 285 | – | 282.67 Å² and 283.77 Å² | – |
| C(OC(=O)CCCCCCCCCCCCC)[C@]([H])(OC(CCCCCCCCCCCCC)=O)COC(CCCCCCCCCCCCC)=O [TG(42:0)] | – | – | 289.67 Å² and 290.31 Å² | – |
| CCCCCCCCCCCCCCCCCC(=O)OC[C@@H](COC(=O)CCCCCCCCCCC)OC(=O)CCCCCCCCCCCCCCCCC [TG(48:0)] | – | 310.54 Å² and 314.67 Å² and 312.34 Å² | – | – |
| CCCCCCCCCCCCCCCCCCC(=O)OC[C@@H](COC(=O)CCCCCCCCCCCC)OC(=O)CCCCCCCCCCCCCCCCCC [TG(51:0)] | – | 324.83 Å² and 327.28 Å² | – | – |
| CCCCCCC/C=C\CCCCCCCC(=O)O[C@H](COC(=O)CCCCCCCCCCCCCCCC)COC(=O)CCCCCCCCCCCCCCCCC [TG(52:1)] | 323.6 | – | 320.83 Å² and 322.81 Å² | – |
| CCCCCCCCCCCCCCCCCCCC(=O)OC[C@@H](COC(=O)CCCCCCCCCCCC)OC(=O)CCCCCCCCCCCCCCCCCCC [TG(53:0)] | – | 331.32 Å² | – | – |
| CCCCC/C=C\C/C=C\C/C=C\C/C=C\CCCC(=O)OC[C@@H](COC(=O)CCCCCCC/C=C\CCCCCC)OC(=O)CCCC/C=C\C/C=C\C/C=C\CCCCC [TG(54:8)] | – | 316.06 Å² | – | – |
| CCCCCCCCCCCCCCCCCCCCC(=O)OC[C@@H](COC(=O)CCCCCCCCCCCC)OC(=O)CCCCCCCCCCCCCCCCCCCC [TG(55:0)] | – | 338.57 Å² | – | – |
| CCCCCCC/C=C\CCCCCCCC(=O)OC[C@H](COC(=O)CCCCCCCCC/C=C\CCCCCCCCCC)OC(=O)CCCCCCC/C=C\CCCCCCC [TG(56:3)] | 332.6 | – | 331.24 Å² | – |
| CC/C=C\C/C=C\C/C=C\C/C=C\C/C=C\CCCC(=O)O[C@H](COC(=O)CCCCCCCCCCCCCCC)COC(=O)CCCCCCCCCCCCCCCCCCCCC [TG(58:5)] | 334.6 | 334.35 Å² | – | – |
| CC/C=C\C/C=C\C/C=C\C/C=C\C/C=C\CCCCCC(=O)OC[C@@H](COC(=O)CCCCCCCCCCCCCCCCC)OC(=O)CCCCCCC/C=C\C/C=C\CCCCC [TG(58:7)] | – | 331.34 Å² and 332.87 Å² | 331.1 Å² | – |
| CC/C=C\C/C=C\C/C=C\CCCCCCCC(=O)O[C@H](COC(=O)CCCCCCC/C=C\C/C=C\CCCCC)COC(=O)CCCCCCCC/C=C\C/C=C\C/C=C\CCCCC [TG(58:8)] | – | 330.76 Å² and 329.67 Å² | – | – |
| CCCCCCCCC/C=C\CCCCCCCC(=O)OC[C@H](COC(=O)CCCCCCCCCCCCCCCCCCC)OC(=O)CCCCCCCCCCCCCCCCCCC [TG(59:1)] | – | 347.61 Å² | – | – |
| CCCC/C=C\C/C=C\CCCCCCCC(=O)OC[C@H](COC(=O)CCCCCCCCCCCCCCCCCCCCC)OC(=O)CCCCCCCCCCCCCCCCCCC [TG(59:2)] | – | 343.68 Å² and 345.92 Å² | – | – |
| CCCC/C=C\C/C=C\CCCCCCCC(=O)OC[C@H](COC(=O)CCCCCCCCCCCCCCCCCCCCC)OC(=O)CCCCCCCCC/C=C\CCCCCCCC [TG(59:3)] | 337.6 | 342.22 Å² and 344.48 Å² | – | – |
| CCCCC/C=C\C/C=C\C/C=C\CCCCCCCCC(=O)OC[C@@H](COC(=O)CCCCCCC/C=C\CCCCCCC)OC(=O)CCCCCCCCC/C=C\CCCCCCCC [TG(59:5)] | – | 338.34 Å² and 341.2 Å² | – | – |
| CC/C=C\C/C=C\C/C=C\C/C=C\C/C=C\C/C=C\CCC(=O)OC[C@@H](COC(=O)CCCCCCC/C=C\CCCCC)OC(=O)CCCCCCCCCCCCCCCCCCCCC [TG(59:7)] | – | 337.86 Å² | – | – |

More lines, main results first:

| collision cross section (N2) ([2]; [M+NH4]+) [Å²] | collision cross section (N2) ([3]; [M+NH4]+) | collision cross section (N2) ([3]; [M+Na]+) | SMILES | also measured |
| --- | --- | --- | --- | --- |
| 261.1 | 260.44 Å² and 262.5 Å² | – | CCCCCC/C=C\CCCCCCCC(=O)OC[C@H](CO)OC(=O)CCCCCCCCCCCCCCCCC [DG(34:1)] | – |
| – | – | 284.2 Å² | CCCCCCCCCCCCCCCCCCCCC(=O)O[C@H](COC(=O)CCCCCCCCCCC)COP(=O)([O-])OCC[N+](C)(C)C [PC(33:0)] | – |
| – | – | 283.22 Å² | CCCC/C=C\CCCCCCCC(=O)OC[C@H](COP(=O)([O-])OCC[N+](C)(C)C)OC(=O)CCCCCCCCCCCCCCCCCC [PC(33:1)] | collision cross section (N2) ([3]; [M+H]+): 281.49 Å² |
| – | 286.83 Å² and 289.71 Å² | 285.72 Å² and 288.76 Å² | CCCC/C=C\CCCCCCCC(=O)O[C@@H](COC(=O)CCCCCCC/C=C\CCCCC)COC(=O)CCCCCCCCCCCC [TG(42:2)] | – |
| 292.9 | 294.01 Å² and 295.78 Å² and 296.41 Å² | 292.91 Å² and 295.34 Å² | CCCCC/C=C\C/C=C\CCCCCCCCCC(=O)OC[C@@H](COC(=O)CCCCCCCCCCC)OC(=O)CCCCCCCCCCC [TG(44:2)] | – |
| 308.3 | 307.53 Å² and 309.7 Å² and 313.52 Å² | 306.66 Å² and 308.69 Å² | CCCCCCCC/C=C\CCCCCCCC(=O)OC[C@@H](COC(=O)CCCCCCCCCCC)OC(=O)CCCCCCC/C=C\CCCCCCCC [TG(48:2)] | – |
| 315.8 | – | 313.04 Å² and 315.16 Å² | CCCCCCCCC/C=C\CCCCCCCC(=O)OC[C@@H](COC(=O)CCCCCCCCCCC)OC(=O)CCCCCCC/C=C\CCCCCCCCC [TG(50:2)] | – |
| 313 | 311.73 Å² and 314.12 Å² | 310.81 Å² and 313.16 Å² | CCCCC/C=C\C/C=C\C/C=C\CCCCCCCCC(=O)OC[C@@H](COC(=O)CCCCCCCCCCCCC)OC(=O)CCCCCCCCCCCCC [TG(50:3)] | – |
| 317.2 | – | 315.77 Å² and 317.68 Å² | CCCCCCCCC/C=C\CCCCCCCC(=O)OC[C@@H](COC(=O)CCCCCCCCCCCC)OC(=O)CCCCCCC/C=C\CCCCCCCCC [TG(51:2)] | – |
| 314.6 | 314.4 Å² and 316.33 Å² and 320.05 Å² | 313.29 Å² and 315.37 Å² | CCCCC/C=C\CCCCCCCC(=O)OC[C@H](COC(=O)CCCCCCC/C=C\CCCCCCCC)OC(=O)CCCCCCC/C=C\CCCCCCCC [TG(51:3)] | – |
| 312.1 | 312.43 Å² and 314.2 Å² and 317.35 Å² | 313.17 Å² | CCCC/C=C\C/C=C\CCCCCCCC(=O)O[C@@H](COC(=O)CCCCCCC/C=C\C/C=C\CCCCC)COC(=O)CCCCCCCCCCCCCCC [TG(51:4)] | – |
| 314.7 | – | 312.33 Å² and 314.31 Å² | CCCCC/C=C\C/C=C\C/C=C\CCCCC(=O)O[C@H](COC(=O)CCCCCCCCCCC)COC(=O)CCCCCCCCCCC/C=C\C/C=C\CCCCC [TG(52:5)] | – |
| – | 313.4 Å² | – | CC/C=C\C/C=C\C/C=C\C/C=C\C/C=C\C/C=C\CCC(=O)OC[C@@H](COC(=O)CCCCCCCCCCC)OC(=O)CCCCCCC/C=C\CCCCCCCC [TG(52:7)] | – |
| – | – | 324.71 Å² and 326.86 Å² | CCCCCCCCC/C=C\CCCCCCCC(=O)OC[C@@H](COC(=O)CCCCCCCCCCCCCCC)OC(=O)CCCCCCC/C=C\CCCCCCCCC [TG(54:2)] | – |
| 329.2 | 332.67 Å² and 335.01 Å² | – | CCCCC/C=C\C/C=C\CCCCCCCCCC(=O)O[C@H](COC(=O)CCCCCCCCCCCC)COC(=O)CCCCCCCCCCCCCCCCCCCCC [TG(55:2)] | – |
| 330.8 | 327.84 Å² and 330.13 Å² and 333.95 Å² | 329.41 Å² | CCCCC/C=C\C/C=C\CCCCCCCCCCCC(=O)OC[C@@H](COC(=O)CCCCCCCCCCC)OC(=O)CCCCCCCCCCC/C=C\C/C=C\CCCCC [TG(56:4)] | – |
| – | 334.96 Å² | – | CCCCC/C=C\C/C=C\CCCCCCCCCC(=O)OC[C@@H](COC(=O)CCCCCCC/C=C\C/C=C\CCCCC)OC(=O)CCCCCCC/C=C\CCCCCCCCC [TG(57:5)] | – |
